# Test results: patent US20140066449A1, “DIPYRIDINIUM DERIVATIVES” (SABREPHARM LIMITED, priority 2011, published 2014)
# Like-named read-outs stand apart in the source and are kept apart here.
# Experiments:
# HEK293 cells [1] = test: Cell death assay in HEK293 cells (PI staining, flow cytometry); assay type: cell-based, human; conditions: HEK293, 5 mM, 48 hours, in the presence of pluronic acid 0.1%
# Description: The ability of test compounds to impact cell death in HEK293 cells after 48 hours exposure was assessed.
# HEK293 cells were seeded into a 24 well plate ([…]) in DMEM supplemented with 10% FCS, antibiotics and L-glutamine. Drugs at indicated concentrations were added followed by incubation for 48 hours at 37° C. before HEK293 cells were washed, trypsinised and resuspended in PBS prior to PI staining (0.1 μg/ml) before analysis of PI+ ve cells by flow cytometry.
# HEK293 cells [2] = test: ROS production in intact HEK293 cells (DCFDA, flow cytometry); assay type: cell-based, human; conditions: 5 mM, 48 hours, absence and presence of pluronic acid 0.1%
# Description: The ability of test compounds to impact ROS production in intact HEK293 cells after 48 hours exposure was assessed.
# HEK293 cells were stained with 2′,7′-dichlorofluorescein diacetate (DCFDA; 10 μM, 30 minutes, 37° C.). The cells were then washed and resuspended to 250×10^5/ml. The stained HEK293 cells were seeded into a 24 well plate ([…]) in DMEM supplemented with 10% FCS, antibiotics and L-glutamine. Drugs at indicated concentrations were added followed by incubation for 48 hours at 37° C. before HEK293 cells were washed, trypsinised and resuspended in PBS prior to analysis for ROS production by flow cytometry.
# [3] = system: A2780/cis [cisplatin ovarian resistant line]; test: Combination with cisplatin, A2780/cis; assay type: cell-based
# [4] = system: H460 non-small cell lung adenocarcinoma; test: MTT in vitro cytotoxicity, H460; assay type: cell-based; conditions: Homo sapiens, NCI-H460, 240 h, H460, 10 day exposure
# Description: (§1) All were stored in the dark at 4° C. An accurately weighed amount of each compound was dissolved in DMSO and Hank's Balanced Salt Solution (Sigma) according to Table 2 below:
# (§2) Further dilutions were made in complete RPMI1640 cell culture medium (RPMI1640 cell culture medium supplemented with 10% foetal bovine serum, 1 mM L-glutamine, and 2 mM sodium pyruvate (all from Sigma)).
# (§3) H460 non-small cell lung adenocarcinoma, HT-29 colon adenocarcinoma and MCF-7 breast adenocarcinoma (ECACC, Salisbury, Wiltshire) were used for analysis. Cells were cultured in complete RPMI1640 cell culture medium, and maintained as monolayer cultures at 37° C. in a humidified 5% CO2 environment.
# (§4) Tumour cell growth inhibition was assessed using the MTT assay with a standard 96 hour plus an extended 10 day incubation. For the 96 hour assay 1×10^4 cells were inoculated into each well of a 96-well plate and incubated overnight at 37° C. in a humidified atmosphere containing 5% CO2 to give time to adhere to the wells and form a monolayer. For the 10 day incubation, 1×102 (H460 and HT-29) and 1×103 (MCF-7) cells were inoculated. The next day, culture medium was removed from each well and replaced with cell culture media for the untreated control, or media containing compound, and the plates then incubated for a further 96 hours or 10 days. […] After 96 hours or 10 days culture medium was removed and 200 μL of 0.5 mgmL-1 MTT solution (Sigma) in complete medium added to each well. Following a further 4 hours incubation, the solution was removed from each well and 150 μL of DMSO added to solubilise the formazan crystals resulting from MTT conversion. Absorbance values for the resulting solutions were read at 550 nm on a Multiskan Ex microplate reader (Thermo Fisher, Loughborough, UK) and cell survival calculated as the absorbance of treated cells divided by the control. Results are expressed in terms of IC50 values (i.e. concentration of compound required to kill 50% of cells), which were determined manually in Microsoft Excel from plots of concentration versus percentage cell survival, and all experiments were performed in triplicate.
# M 14 [melanoma] = test: Combination with cisplatin, M14; assay type: cell-based
# [5] = system: human mitochondria isolated from HEK293 cells; test: ROS production in isolated mitochondria (DCFDA); assay type: biochemical; conditions: isolated HEK293 mitochondria, 100 μM, 120 mins
# Description: The ability of test compounds to impact ROS production in isolated mitochondria after 120 mins exposure was assessed.
# Mitochondria were isolated from harvested human embryonic kidney (HEK293) cells (20×10^6) using a commercial kit (Thermo Scientific) before re-suspension in PBS to a final volume of 800 μL. […] Independent experiments (each assessing the impact of all four compounds along with a positive [AAPH; 5.0 mM] and vehicle control) were repeated three times.
# A2780 [ovarian] = test: Combination with cisplatin, A2780; assay type: cell-based
# [6] = system: HT-29 colon adenocarcinoma; test: MTT in vitro cytotoxicity, HT-29; assay type: cell-based; conditions: Homo sapiens, 240 h, HT-29, 10 day exposure
# Description: as §1, §2, §3, §4
# MCF7 [Breast] = test: Combination with cisplatin, MCF-7; assay type: cell-based, human
# [7] = Redox potential study, square wave voltammetry; assay type: physicochemical; conditions: 0.1 mol dm-3 LiNTf2, 20° C., first scan
# Description: BioAnalytical Systems CV50W potentiostat (from BAS Inc., USA)
# Square wave voltammetry (4 mV step, 25 mV pulse, 10 Hz SW frequency)
# 3 mm diameter glassy carbon working electrode (from BAS)
# 3 mm diameter glassy carbon counter electrode (from BAS)
# Saturated calomel reference electrode (SCE, from Sycopel Scientific Ltd., UK)
# 0.1 mol dm-3 lithium bis(trifluoromethanesulphonyl)imide ((LiNTf2)CAS 90076-65-6, from 3M)
# Voltammograms were recorded from 0.5 V to −1.2 V in deoxygenated solutions of the Compounds.
# [8] = system: MCF-7 breast adenocarcinoma; test: MTT in vitro cytotoxicity, MCF-7; assay type: cell-based, human; conditions: Homo sapiens, MCF7, 240 h, MCF-7, 10 day exposure
# Description: as §1, §2, §3, §4
# [9] = system: cells (depending on the cell studied); conditions: read-out: LC 50, in vitro; cited from earlier work
# rat = conditions: oral; cited from earlier work
# dog = conditions: cited from earlier work
# [10] = system: Modified mouse fibroblasts Nrf2−/−; conditions: cited from earlier work
# [11] = compound 1 μM + cisplatin 10 μM
# [12] = compound 3 μM + cisplatin 10 μM
# [13] = compound 10 μM + cisplatin 10 μM
# [14] = highest concentration 30 μM, read-out: IC50 Run 1
# [15] = highest concentration 100 μM, read-out: IC50 Run 2
# [16] = highest concentration 100 μM, read-out: IC50 Run 3
# [17] = mean of runs, read-out: IC50 Mean
# [18] = compound 10 μM + cisplatin 1 μM
# [19] = compound 10 μM + cisplatin 3 μM
smiles,measurement,setting,value
CC(C)(N=NC(C)(C)C(=N)N)C(=N)N.Cl.Cl [AAPH],cell death (PI staining),HEK293 cells [1],inducedcell death in HEK293 cells in 2/3 experiments
same,ROS production,HEK293 cells [2],induced ROS production in the absence and presence of pluronic acid
"OCc1ccc2[n+](c1)CC[n+]1ccccc1-2 [Compound B, 3-(hydroxymethyl)-6,7-dihydrodipyrido[1,2-a:2′,1′-c]pyrazine-5,8-diium bistrifluoromethanesulfonate]",% cell survival,[3]; [11],32.1%
same,% cell survival,[3]; compound 1 μM + cisplatin 30 μM,6.5%
same,% cell survival,[3]; compound 1 μM + cisplatin 100 μM,0%
same,% cell survival,"[3]; compound 1 μM, cisplatin 0 μM",74.4%
same,% cell survival,[3]; [12],24.2%
same,% cell survival,[3]; compound 3 μM + cisplatin 30 μM,8.1%
same,% cell survival,[3]; compound 3 μM + cisplatin 100 μM,3.3%
same,% cell survival,"[3]; compound 3 μM, cisplatin 0 μM",44.7%
same,% cell survival,[3]; [13],9%
same,% cell survival,[3]; compound 10 μM + cisplatin 30 μM,5%
same,% cell survival,[3]; compound 10 μM + cisplatin 100 μM,2.1%
same,% cell survival,"[3]; compound 10 μM, cisplatin 0 μM",15.4%
same,IC50,[4]; [14],4.7 µM
same,IC50,[4]; [15],4.7 µM
same,IC50,[4]; [16],5 µM
same,IC50,[4]; [17],4.8 µM
same,% cell survival,M 14 [melanoma]; compound 1 μM + cisplatin 1 μM,88.4%
same,% cell survival,M 14 [melanoma]; compound 1 μM + cisplatin 3 μM,83.8%
same,% cell survival,M 14 [melanoma]; [11],58.4%
same,% cell survival,"M 14 [melanoma]; compound 1 μM, cisplatin 0 μM",93.2%
same,% cell survival,M 14 [melanoma]; compound 3 μM + cisplatin 1 μM,78.9%
same,% cell survival,M 14 [melanoma]; compound 3 μM + cisplatin 3 μM,72%
same,% cell survival,M 14 [melanoma]; [12],47.1%
same,% cell survival,"M 14 [melanoma]; compound 3 μM, cisplatin 0 μM",79.7%
same,% cell survival,M 14 [melanoma]; [18],55.7%
same,% cell survival,M 14 [melanoma]; [19],50.2%
same,% cell survival,M 14 [melanoma]; [13],33.4%
same,% cell survival,"M 14 [melanoma]; compound 10 μM, cisplatin 0 μM",59.2%
same,rank order of efficacy (ROS production),[5],F>G>B>A
same,ROS production relative to vehicle treatment,[5]; room temperature,a more modest increase
same,% cell survival,A2780 [ovarian]; compound 1 μM + cisplatin 1 μM,55.2%
same,% cell survival,A2780 [ovarian]; compound 1 μM + cisplatin 3 μM,20.3%
same,% cell survival,A2780 [ovarian]; [11],5.5%
same,% cell survival,"A2780 [ovarian]; compound 1 μM, cisplatin 0 μM",88.5%
same,% cell survival,A2780 [ovarian]; compound 3 μM + cisplatin 1 μM,46.3%
same,% cell survival,A2780 [ovarian]; compound 3 μM + cisplatin 3 μM,18.3%
same,% cell survival,A2780 [ovarian]; [12],5.4%
same,% cell survival,"A2780 [ovarian]; compound 3 μM, cisplatin 0 μM",59%
same,% cell survival,A2780 [ovarian]; [18],20.4%
same,% cell survival,A2780 [ovarian]; [19],11.7%
same,% cell survival,A2780 [ovarian]; [13],3.9%
same,% cell survival,"A2780 [ovarian]; compound 10 μM, cisplatin 0 μM",35.7%
same,IC50,[6]; [14],1.8 µM
same,IC50,[6]; [15],1.2 µM
same,IC50,[6]; [16],1.8 µM
same,IC50,[6]; [17],1.6 µM
same,% cell survival,MCF7 [Breast]; compound 1 μM + cisplatin 0.1 μM,87.3%
same,% cell survival,MCF7 [Breast]; compound 1 μM + cisplatin 0.3 μM,77.9%
same,% cell survival,MCF7 [Breast]; compound 1 μM + cisplatin 1 μM,72.3%
same,% cell survival,"MCF7 [Breast]; compound 1 μM, cisplatin 0 μM",76.2%
same,% cell survival,MCF7 [Breast]; compound 3 μM + cisplatin 0.1 μM,81.4%
same,% cell survival,MCF7 [Breast]; compound 3 μM + cisplatin 0.3 μM,73.2%
same,% cell survival,MCF7 [Breast]; compound 3 μM + cisplatin 1 μM,74.3%
same,% cell survival,"MCF7 [Breast]; compound 3 μM, cisplatin 0 μM",69.1%
same,% cell survival,MCF7 [Breast]; compound 10 μM + cisplatin 0.1 μM,63.7%
same,% cell survival,MCF7 [Breast]; compound 10 μM + cisplatin 0.3 μM,51.7%
same,% cell survival,MCF7 [Breast]; [18],46.3%
same,% cell survival,"MCF7 [Breast]; compound 10 μM, cisplatin 0 μM",67.3%
same,Reduction potential 1,[7],−0.460 V vs. SCE
same,Reduction potential 2,[7],−0.932 V vs. SCE
same,IC50,[8]; [14],2.7 µM
same,IC50,[8]; [15],2.3 µM
same,IC50,[8]; [16],5.9 µM
same,IC50,[8]; [17],3.6 µM
c1cc[n+]2c(c1)-c1cccc[n+]1CC2 [Diquat],CC50,[9],40 to 180 µM
same,LD50 rat,rat,231 mg/kg
same,LD50 dog,"dog; in vivo, po",100 to 200 mg/kg
same,sensitivity to diquat compared to normal unmodified [wildtype] cells,[10],approximately a fourfold increase in sensitivity
COc1cccc2c1C(=O)c1c(O)c3c(c(O)c1C2=O)C[C@@](O)(C(=O)CO)C[C@@H]3O[C@H]1C[C@H](N)[C@H](O)[C@H](C)O1 [Doxorubicin],LD50 rat,rat,12.5 mg/kg
same,LD50 dog,dog; oral,2.0 mg/kg
CN(Cc1cnc2nc(N)nc(N)c2n1)c1ccc(C(=O)N[C@@H](CCC(=O)O)C(=O)O)cc1 [Methotrexate],LD50 rat,rat,180 to 320 mg/kg
same,LD50 dog,dog; oral,120 mg/kg
